ChEMBL document CHEMBL3045727, “Synthesis of some new thiazolopyrane and thiazolopyranopyrimidine derivatives bearing a sulfonamide moiety for evaluation as anticancer and radiosensitizing agents” (Med Chem Res, 2012)

Assays:
[1] = tested on: HepG2; assay: Cytotoxicity against Homo sapiens (human) HepG2 cells after 48 hr followed by gamma-radiation at dose level of 8 Gy by SRB assay; assay type: functional, cell-based; conditions: HepG2, 48 h
[2] = tested on: HepG2; assay: Cytotoxicity against Homo sapiens (human) HepG2 cells assessed as cell surviving fraction at 100 uM after 48 hr followed by gamma-radiation at dose level of 8 Gy by SRB assay; assay type: functional
[3] = tested on: HepG2; assay: Cytotoxicity against Homo sapiens (human) HepG2 cells assessed as cell surviving fraction at 50 uM after 48 hr followed by gamma-radiation at dose level of 8 Gy by SRB assay; assay type: functional
[4] = tested on: HepG2; assay: Cytotoxicity against Homo sapiens (human) HepG2 cells assessed as cell surviving fraction at 10 uM after 48 hr followed by gamma-radiation at dose level of 8 Gy by SRB assay; assay type: functional
[5] = tested on: HepG2; assay: Cytotoxicity against Homo sapiens (human) HepG2 cells after 48 hr by SRB assay; assay type: functional, cell-based; conditions: HepG2, 48 h
[6] = tested on: HepG2; assay: Cytotoxicity against Homo sapiens (human) HepG2 cells assessed as cell surviving fraction at 100 uM after 48 hr by SRB assay; assay type: functional
[7] = tested on: HepG2; assay: Cytotoxicity against Homo sapiens (human) HepG2 cells assessed as cell surviving fraction at 50 uM after 48 hr by SRB assay; assay type: functional
[8] = tested on: HepG2; assay: Cytotoxicity against Homo sapiens (human) HepG2 cells assessed as cell surviving fraction at 25 uM after 48 hr by SRB assay; assay type: functional
[9] = tested on: HepG2; assay: Cytotoxicity against Homo sapiens (human) HepG2 cells assessed as cell surviving fraction at 10 uM after 48 hr by SRB assay; assay type: functional
[10] = tested on: HepG2; assay: Cytotoxicity against Homo sapiens (human) HepG2 cells assessed as cell surviving fraction at 25 uM after 48 hr followed by gamma-radiation at dose level of 8 Gy by SRB assay; assay type: functional

| SMILES | IC50 [1] | Ratio [2] | Ratio [3] | Ratio [4] | IC50 [5] | Ratio [6] | Ratio [7] | Ratio [8] | Ratio [9] | Ratio [10] |
| --- | --- | --- | --- | --- | --- | --- | --- | --- | --- | --- |
| NS(=O)(=O)c1ccc(NC2=NC(=O)CS2)cc1 | 30 µM | 0.12 | 0.12 | 0.53 | 43 µM | 0.231 | 0.168 | 0.501 | 0.848 | 0.48 |
| N#CC1=C(N)Oc2nc(Nc3ccc(S(N)(=O)=O)cc3)sc2C1c1ccc([N+](=O)[O-])cc1 (stereo not drawn) | – | – | – | – | 60 µM | 0.312 | 0.376 | 0.767 | 0.846 | – |
| COc1ccc(C2C(C#N)=C(N)Oc3nc(Nc4ccc(S(N)(=O)=O)cc4)sc32)cc1OC (stereo not drawn) | – | – | – | – | – | 0.672 | 0.64 | 0.564 | 0.628 | – |
| N#CC1=C(N)Oc2nc(Nc3ccc(S(N)(=O)=O)cc3)sc2C1c1ccccc1Cl (stereo not drawn) | – | – | – | – | – | 0.655 | 0.582 | 0.861 | 0.909 | – |
| N#CC1=C(N)Oc2nc(Nc3ccc(S(N)(=O)=O)cc3)sc2C1c1cccc(Br)c1 (stereo not drawn) | – | – | – | – | 72 µM | 0.509 | 0.388 | 0.564 | 0.846 | – |
| Nc1ncnc2c1C(c1ccc([N+](=O)[O-])cc1)c1sc(Nc3ccc(S(N)(=O)=O)cc3)nc1O2 (stereo not drawn) | – | – | – | – | 65 µM | 0.489 | 0.287 | 0.605 | 0.814 | – |
| NS(=O)(=O)c1ccc(Nc2nc3c(s2)C(c2ccc([N+](=O)[O-])cc2)c2c(nc[nH]c2=O)O3)cc1 (stereo not drawn) | 18 µM | 0.14 | 0.12 | 0.41 | 36 µM | 0.015 | 0.168 | 0.498 | 0.625 | 0.22 |
| COc1ccc(C2c3sc(Nc4ccc(S(N)(=O)=O)cc4)nc3Oc3nc[nH]c(=O)c32)cc1OC (stereo not drawn) | – | – | – | – | 32 µM | 0.127 | 0.164 | 0.446 | 0.561 | – |
| Cc1nc2c(c(=O)[nH]1)C(c1ccc([N+](=O)[O-])cc1)c1sc(Nc3ccc(S(N)(=O)=O)cc3)nc1O2 (stereo not drawn) | – | – | – | – | 45 µM | 0.213 | 0.301 | 0.498 | 0.764 | – |
| COc1ccc(C2c3sc(Nc4ccc(S(N)(=O)=O)cc4)nc3Oc3nc(C)[nH]c(=O)c32)cc1OC (stereo not drawn) | 8 µM | 0.11 | 0.1 | 0.31 | 30 µM | 0.115 | 0.118 | 0.477 | 0.529 | 0.12 |
| Nc1nc(=O)[nH]c2c1C(c1ccc([N+](=O)[O-])cc1)c1sc(Nc3ccc(S(N)(=O)=O)cc3)nc1O2 (stereo not drawn) | – | – | – | – | 45 µM | 0.262 | 0.244 | 0.487 | 0.779 | – |
| Nc1nc(=S)[nH]c2c1C(c1ccc([N+](=O)[O-])cc1)c1sc(Nc3ccc(S(N)(=O)=O)cc3)nc1O2 (stereo not drawn) | – | – | – | – | 39 µM | 0.246 | 0.284 | 0.432 | 0.615 | – |
| N#CC1=C(N2C(=O)CCC2=O)Oc2nc(Nc3ccc(S(N)(=O)=O)cc3)sc2C1c1ccc([N+](=O)[O-])cc1 (stereo not drawn) | – | – | – | – | 45 µM | 0.231 | 0.342 | 0.474 | 0.71 | – |
| N#CC1=C(NC(=O)CCC(=O)O)Oc2nc(Nc3ccc(S(N)(=O)=O)cc3)sc2C1c1ccc([N+](=O)[O-])cc1 (stereo not drawn) | 15 µM | 0.13 | 0.11 | 0.36 | 32 µM | 0.166 | 0.127 | 0.382 | 0.626 | 0.23 |
| CC(=O)CC(=O)NC1=C(C#N)C(c2ccc([N+](=O)[O-])cc2)c2sc(Nc3ccc(S(N)(=O)=O)cc3)nc2O1 (stereo not drawn) | – | – | – | – | 37 µM | 0.299 | 0.206 | 0.456 | 0.546 | – |
| COc1ccc(C2c3sc(Nc4ccc(S(N)(=O)=O)cc4)nc3Oc3[nH]c(=S)n(-c4ccccc4)c(=N)c32)cc1OC (stereo not drawn) | 17 µM | 0.13 | 0.12 | 0.4 | 31 µM | 0.137 | 0.128 | 0.434 | 0.593 | 0.21 |
| COc1cccc2c1C(=O)c1c(O)c3c(c(O)c1C2=O)C[C@@](O)(C(=O)CO)C[C@@H]3O[C@H]1C[C@H](N)[C@H](O)[C@H](C)O1 [DOXORUBICIN] | – | – | – | – | 32 µM | 0.125 | 0.122 | 0.479 | 0.537 | – |
